Results taken from article PMC9894920, “Development of an improved and specific inhibitor of NADPH oxidase 2 to treat traumatic brain injury” (Redox Biology, 2023).

Assays:
[1] = Parallel artificial membrane permeability assay (PAMPA); type: in vitro ADME; conditions: pH 7.4, PAMPA, pH7.4, read-out: Permeability(pH7.4) (PAMPA_Pion_Lipid 1e-6 cm/s)
Protocol: The rat liver microsomal stability, parallel artificial membrane permeability assay (PAMPA), and aqueous kinetic solubility assay in phosphate-buffered saline (PBS) buffer were performed as described in the indicated references.

[2] = system: NOX1 reconstituted with p47phox and p67phox; test: NOX1 reconstituted with cytosolic phox proteins (p47phox and p67phox), data not shown; type: cell-based
Source text: Another experiment (data not shown) examined the potency of NCATS-SM7270 against NOX1 and NOX3 reconstituted with cytosolic phox proteins (p47phox and p67phox).

[3] = molecular target: T1, NOX1 (Homo sapiens, UniProt Q9Y5S8); test: Expi293 whole cell assay, NOX1 overexpression; type: cell-based; conditions: highest dose about 100x the IC50 versus NOX2
T1 construct: expressed in transfected cells; host or cells: Expi293 (human embryonic kidney) cells, transient transfection
T1 sequence (Q9Y5S8 1-564): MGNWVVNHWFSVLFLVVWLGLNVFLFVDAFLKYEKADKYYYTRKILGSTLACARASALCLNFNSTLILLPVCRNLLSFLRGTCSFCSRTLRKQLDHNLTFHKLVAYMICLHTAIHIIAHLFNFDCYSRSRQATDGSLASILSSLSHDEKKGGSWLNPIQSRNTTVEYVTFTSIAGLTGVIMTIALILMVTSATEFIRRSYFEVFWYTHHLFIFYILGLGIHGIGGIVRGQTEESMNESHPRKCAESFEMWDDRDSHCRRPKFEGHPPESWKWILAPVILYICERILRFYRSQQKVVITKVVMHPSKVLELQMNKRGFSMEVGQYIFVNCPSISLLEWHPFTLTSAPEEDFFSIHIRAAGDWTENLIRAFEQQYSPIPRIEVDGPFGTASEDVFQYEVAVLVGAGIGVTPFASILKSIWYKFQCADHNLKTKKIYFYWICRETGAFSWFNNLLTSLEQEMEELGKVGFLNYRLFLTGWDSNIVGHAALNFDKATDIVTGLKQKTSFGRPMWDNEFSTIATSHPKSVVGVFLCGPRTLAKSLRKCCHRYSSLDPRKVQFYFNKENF
T1 sequence (P13498 2-195 partner limits assumed): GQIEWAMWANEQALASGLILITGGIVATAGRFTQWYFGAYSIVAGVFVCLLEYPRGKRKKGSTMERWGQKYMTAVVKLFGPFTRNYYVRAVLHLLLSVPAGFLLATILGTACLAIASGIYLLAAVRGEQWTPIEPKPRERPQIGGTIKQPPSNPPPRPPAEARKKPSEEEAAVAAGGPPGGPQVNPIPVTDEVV
Protocol: (§1) Given concerns about previous assays for specific NOX family members we here report the first use of the Expi293 Expression System (Thermo Scientific) to overexpress NOX1, 2, 3, 4, and 5 in excess of any endogenous NOX proteins present in these cells. Transfections were performed following the manufacturer's instructions using the plasmids for each NOX as described in Supplemental Table 2 except that the enhancer solution provided with the Expi293 system was not used because it promoted enzyme activation.
(§2) After the times indicated in Supplemental Table 2, cells were washed and 50,000 added per well of a white 96-well plate (Greiner) along with 50 μM Luminol and 2.5 U horseradish peroxidase/mL in a volume of 90 μl for NOX1, NOX2, and NOX5. Inhibitors or vehicle controls were added and cells were incubated for 20 min at 37 °C prior to activation with the indicated stimuli. For NOX3 and NOX4 (constitutively active), cells were incubated with inhibitor or vehicle control prior to the addition of luminol and HRP. Chemiluminescence was measured every 2 min for 1 s per well at 37 °C in a Varioscan Multimode reader. AUC data were analyzed using GraphPad Prism using non-linear regression analysis after expressing relative to control alone (maximum ROS production).

[4] = molecular target: T2, Bovine Xanthine Oxidase (Bos taurus, UniProt P80457); test: Xanthine oxidase / hypoxanthine luminol chemiluminescence assay; type: biochemical; conditions: xanthine oxidase with hypoxanthine; mean ± SD, n in cell; read-out: X/XO IC50
T2 construct: purchased Sigma
Protocol: Bovine Xanthine Oxidase (Sigma) was dialyzed in PBS to remove ammonium sulfate and stored at 4 °C. Hypoxanthine was prepared by heating in DMSO. Reactions were prepared by diluting xanthine oxidase in HBSS (final concentration 1.25 mU/mL) that contained 50 μM luminol and were preincubated 5 min with control or inhibitor before the addition of hypoxanthine at a final concentration of 0.5 mM. Luminescence was measured at 24 °C as described above.

[5] = molecular target: T3, NOX3 (Homo sapiens, UniProt Q9HBY0); test: Expi293 whole cell assay, NOX3 overexpression; type: cell-based; conditions: doses 100x higher than GSK2795039
T3 construct: expressed in transfected cells; host or cells: Expi293 (human embryonic kidney) cells, transient transfection
T3 sequence (Q9HBY0 1-568): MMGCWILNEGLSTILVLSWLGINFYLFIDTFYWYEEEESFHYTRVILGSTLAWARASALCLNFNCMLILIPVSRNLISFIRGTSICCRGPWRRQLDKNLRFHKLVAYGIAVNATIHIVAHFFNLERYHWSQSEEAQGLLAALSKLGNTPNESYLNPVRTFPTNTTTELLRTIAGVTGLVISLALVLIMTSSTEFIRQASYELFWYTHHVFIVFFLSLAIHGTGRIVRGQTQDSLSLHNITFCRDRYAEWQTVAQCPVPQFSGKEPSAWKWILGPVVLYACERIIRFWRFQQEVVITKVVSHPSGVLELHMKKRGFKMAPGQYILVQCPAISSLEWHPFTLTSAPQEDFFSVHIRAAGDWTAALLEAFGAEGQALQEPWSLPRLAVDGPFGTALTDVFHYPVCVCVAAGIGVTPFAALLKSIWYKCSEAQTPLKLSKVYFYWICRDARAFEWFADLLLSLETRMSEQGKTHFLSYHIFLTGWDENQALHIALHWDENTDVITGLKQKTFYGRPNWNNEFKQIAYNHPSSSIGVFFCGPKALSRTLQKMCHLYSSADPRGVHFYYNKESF
T3 sequence (P13498 2-195 partner limits assumed): T1 sequence (P13498 2-195 partner limits assumed)
Protocol: as §1, §2

[6] = system: mTBI induced cortical cell death; test: Focal cortical mTBI model, transcranial administration, cortical cell death (propidium iodide); type: in vivo, mouse

T2 sequence (P80457 whole entry): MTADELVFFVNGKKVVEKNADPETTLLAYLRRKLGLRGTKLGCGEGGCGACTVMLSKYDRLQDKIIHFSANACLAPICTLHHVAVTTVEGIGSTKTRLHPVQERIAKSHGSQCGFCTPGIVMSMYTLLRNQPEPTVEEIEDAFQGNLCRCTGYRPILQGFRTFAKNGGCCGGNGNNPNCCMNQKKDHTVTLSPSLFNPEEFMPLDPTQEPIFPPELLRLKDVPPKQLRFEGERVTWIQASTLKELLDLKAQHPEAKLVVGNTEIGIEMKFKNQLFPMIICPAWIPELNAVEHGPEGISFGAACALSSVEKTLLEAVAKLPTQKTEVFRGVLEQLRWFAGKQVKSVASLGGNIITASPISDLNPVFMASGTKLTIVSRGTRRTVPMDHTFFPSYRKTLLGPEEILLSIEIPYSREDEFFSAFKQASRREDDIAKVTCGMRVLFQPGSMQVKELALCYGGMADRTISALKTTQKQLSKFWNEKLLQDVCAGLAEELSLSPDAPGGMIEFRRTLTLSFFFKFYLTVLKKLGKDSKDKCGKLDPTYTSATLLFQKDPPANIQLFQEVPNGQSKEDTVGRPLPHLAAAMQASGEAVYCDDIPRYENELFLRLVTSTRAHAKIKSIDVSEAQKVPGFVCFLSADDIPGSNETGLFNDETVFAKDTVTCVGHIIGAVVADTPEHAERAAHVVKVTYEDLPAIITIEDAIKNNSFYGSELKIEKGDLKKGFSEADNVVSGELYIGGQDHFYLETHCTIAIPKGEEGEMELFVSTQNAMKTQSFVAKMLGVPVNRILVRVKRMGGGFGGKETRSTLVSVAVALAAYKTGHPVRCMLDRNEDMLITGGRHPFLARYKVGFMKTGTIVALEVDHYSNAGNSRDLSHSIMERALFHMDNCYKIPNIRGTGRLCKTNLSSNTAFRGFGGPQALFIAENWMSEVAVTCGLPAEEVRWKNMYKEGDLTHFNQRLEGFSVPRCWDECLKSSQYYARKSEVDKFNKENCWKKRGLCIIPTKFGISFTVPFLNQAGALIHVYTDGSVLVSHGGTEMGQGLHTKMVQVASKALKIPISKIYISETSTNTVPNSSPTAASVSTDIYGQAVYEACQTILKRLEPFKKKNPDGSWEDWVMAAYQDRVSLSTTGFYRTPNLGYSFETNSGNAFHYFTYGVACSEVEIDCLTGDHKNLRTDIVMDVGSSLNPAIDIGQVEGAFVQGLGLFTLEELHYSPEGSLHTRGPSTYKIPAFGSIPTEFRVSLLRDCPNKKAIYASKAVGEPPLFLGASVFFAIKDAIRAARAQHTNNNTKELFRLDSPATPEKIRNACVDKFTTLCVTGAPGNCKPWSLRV

For `Cn1ccc(S(=O)(=O)Nc2ccnc3c2c(-c2ccc4ccn(C)c4c2)cn3C2CC2)n1` [NCATS-SM7270, N-(1-cyclopropyl-3-(1-methyl-1H-indol-6-yl)-1H-pyrrolo [2,3-b]pyridin-4-yl)-1-methyl-1H-pyrazole-3-sulfonamide], the Papp [1] was 999 ×10⁻⁶ cm/s, the “dose needed to observe inhibition of NOX1 versus NOX2” value [2] was roughly 10 fold and the “activity against NOX1” value [3] was “only marginal activity at the highest dose tested”. For the same compound, the IC50 [4] was 4.1 ± 5.66 µM, the “activity against NOX3” value [5] was “no detectable activity” and the “cortical cell death in NOX1 deficient mice” value ([6]; NOX1 KO mice, 40 μM transcranial) was “had no impact”. For the same compound, the “cortical cell death in NOX2 deficient mice” value ([6]; NOX2 KO mice, 40 μM transcranial) was “had no impact”, the “cortical cell death in NOX4 KO mice” value ([6]; NOX4 KO mice, 40 μM transcranial) was “significantly reduced cortical cell death” and the “reduction of cortical cell death” value ([6]; WT mice, 40 μM transcranially immediately after mTBI) was roughly 50%. For the same compound, the “dose dependence of reduction in mTBI induced cortical cell death” value ([6]; WT mice, transcranial, titration 10, 50 or 100 μM) was “dose-dependent reduction”.
